Data set [1] deals with Walker 256 rat mammary carcinoma. Description: MTT cytotoxicity assay, Walker 256. Type of data set: cell-based. How it is done: (§1) The cytotoxicity of CB7646 and CB7683 was compared with trimelamol against mammalian tumour cell lines using the MTT assay. […] Cell lines were grown in culture with continual drug exposure. […] Figures in parenthesis refer to standard deviation or ± values for 2 or more measurements.

In the next data set the test system is PC6 murine plasmacytoma. Description: MTT cytotoxicity assay, PC6. As to conditions: Mus musculus, continual drug exposure, parenthesis = standard deviation or ± values. Type of data set: cell-based. On the procedure: (§2) The cytotoxicity of CB7646 and CB7683 was compared with trimelamol against mammalian tumour cell lines using the MTT assay. This assay is based upon the selective ability of living but not dead cells to reduce the tetrazolium salt MTT (3-[4,5-dimethylthiazol-2-yl]-25-diphenyl tetrazolium bromide) to purple formazan (Mosmann et al, 1983, J. Immun. Methods 65; 55-63; Carmichael et al (1987) Cancer Res. 47; 936-942). Cell lines were grown in culture with continual drug exposure. The IC50 values (in μm) of the compounds (i.e. concentration giving 50% inhibition of cell growth as compared with untreated control) were determined, and are shown in Table 2. Figures in parenthesis refer to standard deviation or ± values for 2 or more measurements.
PC6 murine plasmacytoma

The nature of another data set: Lethality (LD50) in mice. As to conditions: mouse, in vivo. The text has this: (§3) The anti-tumour activity of CB 7646 prepared in accordance with Example 1 against ADJ/PC6 tumour in mice were compared with that of trimelamol. An implant of 1 mm^3 of tumour was made on day 1. On day 20, animals bearing tumours of comparative size were placed into groups of 4 and treated with drug on 5 consecutive days, and then left until day 30. Tumours from the treated and controls were dissected and weighed as a measure of tumour growth. Compounds were given in 5% DMSO/dextrose.
(§4) Example 6 was repeated to obtain more precise LD50 values.

For a further data set, the system named is ADJ/PC6 tumour. Kind of data set: Antitumour activity towards the ADJ/PC6 tumour in mice. Type of data set: in vivo. As to conditions: for % Inhibition (Tumour wt as % of Control Value): 5 consecutive days, day 30; for T.I.: Example 7 (repeat of Example 6); for ED90: Mus musculus.
From the text: as §3, §4

Data set [2] concerns CH1 human epithelial ovarian cancer. Kind of data set: MTT cytotoxicity assay, CH1. As to conditions: continual drug exposure, parenthesis = standard deviation or ± values. Type of data set: cell-based. How it is done:
as §2
CH1, 41M human epithelial ovarian cancer

A short description of data set [3]: Dimer/polymer formation in solution (overnight standing). As to conditions: aqueous solution, 4-5 mg/ml, overnight (14-16 hours), room temperature. The format is physicochemical. On the procedure:
(ii) Dimer/polymer Formation in Solution
An aqueous solution of CB7646 and trimelamol in 4ml aliquots at a concentration of 4-5 mg/ml was left to stand overnight (14-16 hours) at room temperature.

The nature of data set [4]: Stability in solution (half-life by HPLC).
Method: Compounds were dissolved in DMSO to a concentration of 50 mM. Aliquots were then dispersed into the appropriate medium to give a final concentration of 100 μM in a volume of about 10 ml. […] (to simulate room temperature) or at 37° C. in water, 0.9% NaCl or 5% dextrose. Aliquots were removed from each preparation at intervals to assess their stability (i.e. half-life, T^1/2) which was measured using HPLC analysis. This entailed an isocratic elution using a mobile phase comprising 10% acetonitrile, 90% 0.05M ammonium bicarbonate. The 15 cm column was packed with C8 octyl Spherisorb material. The column was encased in a cooling cabinet which was maintained at 14°-17° C. Standards of freshly prepared solutions were run throughout the analysis period by way of controls.
T^1/2 measurements were read from a semi-logarithmic plot of peak area (y) versus time (x).
Data set [5] concerns H69 human small cell lung cancer. Kind of data set: MTT cytotoxicity assay, H69. The format is cell-based. On the procedure: as §1
The next data set relates to PXN65 Xenografts. Kind of data set: In vivo activity against PXN65 ovarian cancer xenografts. Set-up: species or system mice. As to conditions: for time to tumour regression: treated mice. How it is done:
CB7646 was tested in vivo against ovarian cancer xenografts of the PXN65 cell line transplanted into mice, substantially in accordance with Harrap et al, Annals of Oncology, 1990, 1;65-76. PXN65 is a cisplatin-sensitive line.

The conditions of data set [6]: Judson et al 1989, 1991; cited from earlier work.
In the next data set the test system is ovarian carcinomas. As to conditions: cited from earlier work.
Where [7] appears, read: WALKER 256, MTT, continual drug exposure, parenthesis = standard deviation or ± values, read-out: IC50.
[8] abbreviates: Example 7 (repeat of Example 6).
[9] abbreviates: ADJ/PC6, Example 7 (repeat of Example 6).
[10] abbreviates: MTT, continual drug exposure, parenthesis = standard deviation or ± values, read-out: IC50.

The values below come from patent US5854244A, “Melamine derivatives for use in the treatment of cancer” (priority 1992, dated 1998).

Molecules are shown by their SMILES. Read-outs that look alike come from different tables or passages of the source.

`CNc1nc(N(C)CO)nc(N(C)CO)n1` [CB7646, 2,4-Bis[(hydroxymethyl) (methyl)amino]6-methylamino-1,3,5-triazine]: the IC50 was 10.7 µM in data set [1] (setting [7]); 10.5 µM in [1] (Walker 256, CB7646 prepared by recrystallisation method of Example 2, read-out: IC50 (repeat, recrystallised preparation)); 25.1 µM with PC6 murine plasmacytoma; 35.8 µM in [2]; 16.5 µM in data set [5] (CB7646 prepared by recrystallisation method of Example 2, read-out: IC50 (repeat, recrystallised preparation)); 14.7 µM in data set [5] (setting [10]). The LD50 in the data set “Lethality (LD50) in mice” (Example 6) is greater than 100 mg/kg; in “Lethality (LD50) in mice” (setting [8]) it was 142 mg/kg. The “% Inhibition (Tumour wt as % of Control Value)” value is 5.6% with ADJ/PC6 tumour (3.25 mg/kg); -1.0% in the data set on ADJ/PC6 tumour (6.25 mg/kg); 13.7% in the data set with ADJ/PC6 tumour (12.5 mg/kg); 5.6% in the data set with ADJ/PC6 tumour (25 mg/kg); 76.8% in the data set on ADJ/PC6 tumour (50 mg/kg); 98.0% in the data set with ADJ/PC6 tumour (100 mg/kg). Also, in the data set on ADJ/PC6 tumour (ADJ/PC6 tumour, Example 6), the “Therapeutic Index (TI)” value is reported as greater than 1.4. Moreover, the T.I. with ADJ/PC6 tumour was 4.6. Further, the ED90 worked out at 74 mg/kg in the data set on ADJ/PC6 tumour (ADJ/PC6, ADJ/PC6 tumour, Example 6) and 31 mg/kg in the data set on ADJ/PC6 tumour (setting [9]). The “Dimer/polymer formation (precipitate)” value in data set [3] is recorded as “did not form a precipitate”. Further, the half-life at 100 µM in [4] (0.9% nacl, pH 5, T^1/2, 0.9% NaCl, pH 5.0, r.t.) was 16 h; in data set [4] (5% dextrose, pH 4, T^1/2, 5% Dextrose, pH 4.0, r.t.), 22 h; in [4] (deionised water, pH 7.5, T^1/2, Deionised water, pH 7.5, r.t.) it was 18 h; in [4] (deionised water, pH 7.5, T^1/2, deionised water, pH 7.5, 37 °C), 3 h. The “stability (summary of Table 1)” value in data set [4] (relative to trimelamol) was “superior stability”. The molecule further had a Deaths in the data set with PXN65 Xenografts (15 mg/kg, 20 doses) of 0. Further, the “GD (Growth delay)” value with PXN65 Xenografts (15 mg/kg, 20 doses) was greater than 140 days. In addition, the “efficacy (summary)” value in the data set on PXN65 Xenografts (PXN65 xenografts, relative to trimelamol) is “comparable efficacy to trimelamol”. For the same molecule, the “time to tumour regression” value with PXN65 Xenografts (PXN65 xenografts) was no more than 28 days.
Consider `OCN(CC(F)(F)F)c1nc(NCC(F)(F)F)nc(N(CO)CC(F)(F)F)n1` [CB7683, 2,4-Bis[(hydroxymethyl)(2,2,2 trifluoroethyl)amino]-6-(2,2,2-trifluoroethyl)amino-1,3,5-triazine], for which the IC50 worked out at 31.6 µM with PC6 murine plasmacytoma, 40.9 µM in data set [2] and 8.9 µM in [5] (setting [10]).
For `CN(CO)c1nc(N(C)CO)nc(N(C)CO)n1` [Trimelamol, 2,4,6-tris{(hydroxymethyl) (methyl)amino}-1,3,5-triazine, reference compound], the IC50 turned out to be 9.4 µM in data set [1] (setting [7]), 12.9 µM in the data set on PC6 murine plasmacytoma, 23.4 µM in [2] and 8.5 µM in data set [5] (setting [10]). Besides, the LD50 in “Lethality (LD50) in mice” (setting [8]) was determined as 70 mg/kg. The “% Inhibition (Tumour wt as % of Control Value)” value came out at 0% in the data set on ADJ/PC6 tumour (3.25 mg/kg); 18.2% in the data set with ADJ/PC6 tumour (6.25 mg/kg); 13.7% in the data set with ADJ/PC6 tumour (12.5 mg/kg); 45.5% in the data set on ADJ/PC6 tumour (25 mg/kg); 83.9% with ADJ/PC6 tumour (50 mg/kg); 96.0% with ADJ/PC6 tumour (100 mg/kg). Also, the T.I. with ADJ/PC6 tumour was 2.9. Besides, the ED90 with ADJ/PC6 tumour (setting [9]) is 24 mg/kg. The “polymerisation during Phase I and II clinical trials” value in data set [6] is “proved problematic”. In data set [3], the “Dimer/polymer formation (precipitate)” value is “formed a heavy precipitate”. In addition, the half-life at 100 µM in data set [4] (0.9% nacl, pH 4.9) was determined as 4.55 h; in data set [4] (5% dextrose, pH 4), 5.8 h; in data set [4] (deionised water, pH 7.5) it was 2 h. Also, in the data set with ovarian carcinomas (humans, Judson et al 1989), the “half-life of trimelamol activity in humans” value is “short”. Also, the clinical activity result with ovarian carcinomas (particularly against ovarian carcinomas) is “clinically active”. Moreover, the Deaths in the data set on PXN65 Xenografts (15 mg/kg, 20 doses) came out at 0; in the data set on PXN65 Xenografts (30 mg/kg, 5 doses), 0. For the same molecule, the “GD (Growth delay)” value is greater than 170 days with PXN65 Xenografts (15 mg/kg, 20 doses) and greater than 273 days in the data set with PXN65 Xenografts (30 mg/kg, 5 doses). In addition, in the data set on PXN65 Xenografts (PXN65 xenografts), the “time to tumour regression” value is recorded as no more than 28 days.
